In US20070254903A1, “Novel Spiroindoline or Spiroisoquinoline Compounds, Methods of Use and Compositions Thereof” (ARENA PHARMACEUTICALS, INC., priority 2003, published 2007) one finds IC50 data, which are given here for 30 molecules.

pIC50: −log10 of the molar value.

The target in the experiment is T1, human Mas receptor (Homo sapiens, UniProt P04201).
T1 construct: expressed in transfected cells
T1 sequence (P04201 1-325): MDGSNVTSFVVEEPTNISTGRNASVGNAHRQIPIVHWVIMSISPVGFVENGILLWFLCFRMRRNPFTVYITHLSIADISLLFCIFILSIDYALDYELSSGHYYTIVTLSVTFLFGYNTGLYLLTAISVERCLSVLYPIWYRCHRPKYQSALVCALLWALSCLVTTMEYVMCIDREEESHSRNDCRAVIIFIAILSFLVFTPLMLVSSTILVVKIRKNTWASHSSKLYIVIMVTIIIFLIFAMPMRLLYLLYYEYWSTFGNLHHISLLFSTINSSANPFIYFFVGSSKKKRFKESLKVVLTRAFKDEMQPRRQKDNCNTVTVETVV
The experiment can be described thus: Mas receptor IP3 assay (inverse agonist assay). Type of experiment: cell-based. The conditions noted are these: HEK293 cells over-expressing human Mas receptor; average from several experiments. On the procedure:
The Mas receptor IP3 assay was performed using a mammalian cell line (HEK293) which was transfected with a plasmid containing the human Mas receptor and selected for stable expression of the receptor. For the inverse agonist assay, higher levels of Mas receptor constitutive activity were desired. To achieve this, Mas receptor expression levels were increased by transiently transfecting the same Mas receptor stable cell line with additional human Mas receptor plasmid DNA following standard procedures. These cells were used in the Mas receptor IP3 assay approximately 24 hours post-transfection.
Cells were split into 96-well plates (50,000 cells/well) and allowed to attach for a period of 6 hours. The growth medium was then replaced with medium supplemented with 4 μCi/ml [^3H]myo-inositol (100 μl; Perkin Elmer Life Sciences) and the cells were allowed to incubate for approximately 20 hours. Test compounds were serially diluted in inositol-free media containing 10 mM LiCl. The media in the plates was removed by aspiration, replaced with these test compound solutions and incubated at 37° C. for 1 hour. Following this incubation, the media was removed by aspiration and replaced with buffer containing 0.1M formic acid. The plates were then frozen overnight at −80° C. to achieve complete cell lysis.
The following day, the assay plates were thawed at room temperature. The thawed contents were then transfered to 96-well filter plates (Millipore, Multiscreen) pre-loaded with resin (Biorad, AG1-X8 100-200 mesh, formate form). The plate was filtered using a vacuum manifold and the resin was washed multiple times with water. An elution buffer was then applied (200 μl, 0.2M Ammonium formate/0.1M formic acid) and the resulting eluent was collected, under vacuum, in a 96-well collection plate. Aliquots of the eluent (80 μl) were transferred to filter plates (Whatman, Unifilter GF/C) and dried in a 45° C. oven overnight. Dried plates were counted on a scintillation counter following the addition of an appropriate scintillant (Perkin Elmer Life Sciences, Optiphase Supermix or Hi-Safe 3).
As usually defined, the pIC50 is −log10 of the IC50, conventionally taken in molar units. `COc1ccc(C(=O)N2CC3(CCN(CC4CC4)CC3)c3cc(F)ccc32)cc1` [Compound 31, 1′-(cyclopropylmethyl)-1,2-dihydro-5-fluoro-1-(4-methoxy-benzoyl)-spiro[3H-indole-3,4′-piperidine]] gave a pIC50 of 6.05.
To `C=CCN1CCC2(CC1)CN(C(=O)c1ccccc1Cl)c1ccc(F)cc12` [Compound 69, 1′-(allyl)-1,2-dihydro-5-fluoro-1-(2-chloro-benzoyl)-spiro[3H-indole-3,4′-piperidine]] belongs 6.42.
`C=CCN1CCC2(CC1)CN(C(=O)c1cc(OC)cc(OC)c1)c1ccc(F)cc12` [Compound 73, 1′-(allyl)-1,2-dihydro-5-fluoro-1-(3,5-dimethoxy-benzoyl)-spiro[3H-indole-3,4′-piperidine]]: the negative-log IC50 (pIC50) was 6.06. Compared with the last molecule, the pIC50 is 0.36 log units lower.
Consider `C=CCN1CCC2(CC1)CN(C(=O)c1ccc(F)cc1F)c1ccc(F)cc12` [Compound 76, 1′-(allyl)-1,2-dihydro-5-fluoro-1-(2,4-difluoro-benzoyl)-spiro[3H-indole-3,4′-piperidine]], for which the negative logarithm of the IC50 (pIC50) is 6.03.
As for `C=CCN1CCC2(CC1)CN(C(=O)c1ccc([N+](=O)[O-])cc1)c1ccc(F)cc12` [Compound 83, 1′-(allyl)-1,2-dihydro-5-fluoro-1-(4-nitro-benzoyl)-spiro[3H-indole-3,4′-piperidine]], the figure is 6.12; as for `C=CCN1CCC2(CC1)CN(C(=O)c1cccc3ccccc13)c1ccc(F)cc12` [Compound 85, 1′-(allyl)-1,2-dihydro-5-fluoro-1-(naphthalene-1-carbonyl)-spiro[3H-indole-3,4′-piperidine]], 6.42.
In turn, `C=CCN1CCC2(CC1)CN(C(=O)c1cccc(Cl)c1)c1ccc(F)cc12` [Compound 86, 1′-(allyl)-1,2-dihydro-5-fluoro-1-(3-chloro-benzoyl)-spiro[3H-indole-3,4′-piperidine]] had a pIC50 of 6.15.
As for `C=CCN1CCC2(CC1)CN(C(=O)c1ccc(F)c(C(F)(F)F)c1)c1ccc(F)cc12` [Compound 88, 1′-(allyl)-1,2-dihydro-5-fluoro-1-(3-trifluoromethyl-4-fluoro-benzoyl)-spiro[3H-indole-3,4′-piperidine]], the figure is 6.05; as for `C=CCN1CCC2(CC1)CN(C(=O)c1ccc3c(c1)OCO3)c1ccc(F)cc12` [Compound 89, 1′-(allyl)-1,2-dihydro-5-fluoro-1-(benzo[1,3]dioxole-5-carbonyl)-spiro[3H-indole-3,4′-piperidine]], 6.00.
Consider `C=CCN1CCC2(CC1)CN(C(=O)c1cccc(C(Cl)Cl)c1)c1ccc(F)cc12` [Compound 92, 1′-(allyl)-1,2-dihydro-5-fluoro-1-(3-dichloromethyl-benzoyl)-spiro[3H-indole-3,4′-piperidine]], for which the pIC50 is 6.23.
In turn, `C=CCN1CCC2(CC1)CN(C(=O)c1cccnc1Cl)c1ccc(F)cc12` [Compound 93, 1′-(allyl)-1,2-dihydro-5-fluoro-1-(2-chloro-pyridine-3-carbonyl)-spiro[3H-indole-3,4′-piperidine]] showed a pIC50 of 6.08.
As to `O=C(c1ccccc1Cl)N1CC2(CCN(CC3CC3)CC2)c2ccccc21` [Compound 101, 1′-(cyclopropylmethyl)-1,2-dihydro-1-(2-chloro-benzoyl)-spiro[3H-indole-3,4′-piperidine]], the pIC50 is 6.10.
Molecule `C=CCN1CCC2(CC1)CN(C(=O)c1cccc(C(Cl)Cl)c1)c1ccccc12` [Compound 102, 1′-(allyl)-1,2-dihydro-1-(3-dichloromethyl-benzoyl)-spiro[3H-indole-3,4′-piperidine]] gave a pIC50 of 6.03.
As for `C=CCN1CCC2(CC1)CN(C(=O)c1cccc3ccccc13)c1ccccc12` [Compound 133, 1′-(allyl)-1,2-dihydro-1-(naphthylene-1-carbonyl)-spiro[3H-indole-3,4′-piperidine]], the figure is 6.27; as for `O=C(c1ccccc1F)N1CC2(CCN(CC3CC3)CC2)c2cc(F)ccc21` [Compound 139, 1′-(cyclopropylmethyl)-1,2-dihydro-5-fluoro-1-(2-fluoro-benzoyl)-spiro[3H-indole-3,4′-piperidine]], 6.14.
As for `O=C(c1cccc(F)c1F)N1CC2(CCN(CC3CC3)CC2)c2cc(F)ccc21` [Compound 142, 1′-(cyclopropylmethyl)-1,2-dihydro-5-fluoro-1-(2,3-difluoro-benzoyl)-spiro[3H-indole-3,4′-piperidine]], the figure is 6.32; as for `O=C(c1cccc(C(Cl)Cl)c1)N1CC2(CCN(CC3CC3)CC2)c2cc(F)ccc21` [Compound 147, 1′-(cyclopropylmethyl)-1,2-dihydro-5-fluoro-1-(3-dichloromethyl-benzoyl)-spiro[3H-indole-3,4′-piperidine]], 6.13; as for `O=C1c2ccccc2-c2cccc(C(=O)N3CC4(CCN(CC5CC5)CC4)c4cc(F)ccc43)c21` [Compound 153, 1′-(cyclopropylmethyl)-1,2-dihydro-5-fluoro-1-(9-oxo-9H-fluorene-1-carbonyl)-spiro[3H-indole-3,4′-piperidine]], 6.11.
In turn, `O=C(c1cccc2ccccc12)N1CC2(CCN(CC3CC3)CC2)c2cc(F)ccc21` [Compound 159, 1′-(cyclopropylmethyl)-1,2-dihydro-5-fluoro-1-(naphthylene-1-carbonyl)-spiro[3H-indole-3,4′-piperidine]] showed a pIC50 of 6.30.
For `O=C(c1ccc2ccccc2c1)N1CC2(CCN(CC3CC3)CC2)c2cc(F)ccc21` [Compound 160, 1′-(cyclopropylmethyl)-1,2-dihydro-5-fluoro-1-(naphthylene-2-carbonyl)-spiro[3H-indole-3,4′-piperidine]], the pIC50 is 6.14.
To `O=C(c1cccc(Cl)c1)N1CC2(CCN(CC3CC3)CC2)c2cc(F)ccc21` [Compound 165, 1′-(cyclopropylmethyl)-1,2-dihydro-5-fluoro-1-(3-chloro-benzoyl)-spiro[3H-indole-3,4′-piperidine]] belongs 6.12; to `O=C(N1CC2(CCN(CC3CC3)CC2)c2cc(F)ccc21)C12CC3CC(CC(C3)C1)C2` [Compound 168, 1′-(cyclopropylmethyl)-1,2-dihydro-5-fluoro-1-(adamantane-1-carbonyl)-spiro[3H-indole-3,4′-piperidine]], 6.30; to `C=CCN1CCC2(CC1)CN(S(=O)(=O)c1ccc(Cl)cc1Cl)c1ccc(F)cc12` [Compound 185, 1′-(allyl)-1,2-dihydro-5-fluoro-1-(2,4-dichloro-benzenesulfonyl)-spiro[3H-indole-3,4′-piperidine]], 6.02.
`O=S(=O)(c1ccc(Cl)cc1Cl)N1CC2(CCN(CC3CC3)CC2)c2cc(F)ccc21` [Compound 192, 1′-(cyclopropylmethyl)-1,2-dihydro-5-fluoro-1-(2,4-dichloro-benzenesulfonyl)-spiro[3H-indole-3,4′-piperidine]]: the pIC50 was 6.05.
Molecule `CN1CCC2(CC1)CN(C(=O)c1cccc(C(Cl)Cl)c1)c1ccc(F)cc12` [Compound 199, 1′-(methyl)-1,2-dihydro-5-fluoro-1-(3-dichloromethyl-benzoyl)-spiro[3H-indole-3,4′-piperidine]] had a pIC50 of 6.42.
`C=CCN1CCC2(CC1)CN(C(=O)c1ccccc1F)c1ccc(OC)cc12` [Compound 204, 1′-(allyl)-1,2-dihydro-5-methoxy-1-(2-fluoro-benzoyl)-spiro[3H-indole-3,4′-piperidine]] gave a pIC50 of 6.26.
`C=CCN1CCC2(CC1)CN(S(=O)(=O)c1ccccc1Cl)c1ccc(F)cc12` [Compound 206, 1′-(allyl)-1,2-dihydro-5-fluoro-1-(2-chloro-benzenesulfonyl)-spiro[3H-indole-3,4′-piperidine]]: the pIC50 was 6.52. This pIC50 lies 0.26 log units higher than the previous one.
The molecule `C=CCN1CCC2(CC1)CN(S(=O)(=O)c1cc(Cl)c(Cl)s1)c1ccc(F)cc12` [Compound 210, 1′-(allyl)-1,2-dihydro-5-fluoro-1-(4,5-dichloro-thiophene-2-sulfonyl)-spiro[3H-indole-3,4′-piperidine]] showed a pIC50 of 6.05.
`C=CCN1CCC2(CC1)CN(C(=O)c1cc(Cl)sc1Cl)c1ccc(F)cc12` [Compound 211, 1′-(allyl)-1,2-dihydro-5-fluoro-1-(2,5-dichloro-thiophene-3-carbonyl)-spiro[3H-indole-3,4′-piperidine]] showed a pIC50 of 6.07. The pIC50 values of the last two molecules are within 0.2 log units of each other.
Molecule `C=CCN1CCC2(CC1)CN(S(=O)(=O)c1ccc(Cl)s1)c1ccc(F)cc12` [Compound 214, 1′-(allyl)-1,2-dihydro-5-fluoro-1-(5-chloro-thiophene-2-sulfonyl)-spiro[3H-indole-3,4′-piperidine]] showed a pIC50 of 6.34.
